Source: US20060178374A1, “Aminoheteroaryl compounds as protein kinase inhibitors” (AGOURON PHARMACEUTICALS, INC., priority 2004, published 2006)

Each compound was assayed against HGFR (c-Met) (Homo sapiens, UniProt P08581) (assay: HGFR Continuous-Coupled Spectrophotometric Assay). Settings: HGFR enzyme 50 nM, Met-2 peptide substrate, 37° C.
Format: biochemical
Method: The general procedure is as follows: compounds and kinase assay reagents are introduced into test wells. The assay is initiated by addition of the kinase enzyme. Enzyme inhibitors reduce the measured activity of the enzyme.
In the continuous-coupled spectrophotometric assay the time-dependent production of ADP by the kinase is determined by analysis of the rate of consumption of NADH by measurement of the decrease in absorbance at 340 nm. As the PK produces ADP it is re-converted to ATP by reaction with phosphoenol pyruvate and pyruvate kinase. Pyruvate is also produced in this reaction. Pyruvate is subsequently converted to lactate by reaction with lactate dehydrogenase, which simultaneously converts NADH to NAD.
HGFR Continuous-Coupled Spectrophotometric Assay
This assay analyzes the tyrosine kinase activity of HGFR on the Met-2 substrate peptide, a peptide derived from the activation loop of the HGFR.
• 1. […] Dissolve up in 200 mM HEPES, pH 7.5 at 10 mM stock. • 3. 1 M PEP (phospho-enol-pyruvate) in 200 mM HEPES, pH 7.5 • 4. 100 mM NADH (B-Nicotinamide Adenine Dinucleotide, Reduced Form) in 200 mM HEPES, pH 7.5 • 5. 4 M MgCl2 (Magnesium Chloride) in ddH2O 6. 1 M DTT (Dithiothreitol) in 200 mM HEPES, pH 7.5 • 7. 15 Units/mL LDH (Lactic Dehydrogenase) • 8. 15 Units/mL PK (Pyruvate Kinase) • 9. 5M NaCl dissolved in ddH2O • 10. Tween-20 (Protein Grade) 10% Solution • 11. 1 M HEPES buffer: (N-[2-Hydroxethyl]piperazine-N-[2-ethanesulfonic acid]) Sodium Salt. Dissolve in ddH2O, adjust pH to 7.5, bring volume to 1 L. Filter at 0.1 μm. • 12. […] 100% DMSO (SIGMA) • 14. […] Beckman DU-650 w/ micro cell holders • 18. Beckman 4-position micro cell cuvette Procedure:
Prep Dilution Buffer (DB) for Enzyme (For 30 mL prep) • 1. DB final concentration is 2 mM DTT, 25 mM NaCl2, 5 mM MgCl2, 0.01% Tween-20, and 50 mM HEPES buffer, pH 7.5. • 2. Make up 50 mM HEPES by adding 1.5 mL 1 M HEPES into 28.1 mL of ddH2O. Add rest of the reagents. Into 50 mL conical vial, add 60 μL of 1M DTT, 150 μL 5M NaCl2, 150 μL 1M MgCl2, and 30 μL of 10% Tween-20 to give total volume of 30 mL. • 3. Vortex for 5-10 seconds. • 4. Aliquot out DB at 1 mL/tube and label tubes as “DB HGFR” • 5. Note: This can be prepared and stored ahead of time. • 6. Freeze un-used aliquots in microcentrifuge tubes at −20° C. freezer.
Prep Compounds • 1. For compound dilution plate, add 4 μL of 10 mM stock into column 1 of plate, and bring volume to 100 μL with 100% DMSO. • 2. Set up the Precision 2000 dilution method. A final concentration of 200 μM compound in 50% DMSO, 100 mM HEPES (1:2 serial dilution).
Prep Coupled Enzymatic Buffer:
1. Final concentration in assay:
• 2. For a 10 mL reaction buffer add 10 μL of 1M PEP, 33 μL of 100 mM NADH, 50 μL of 4M MgCl2, 20 μL of 1M DTT, 6 μL of 500 mM ATP, and […] of 10 mM Met-2 peptide into 100 mM HEPES buffer pH 7.5 and vortex/mix. • 3. Add coupling enzymes, LDH and PK, into reaction mix. Mix by gentle inversion.
1. Spectrophotometer settings:
• 2. Add 85 μL of CE reaction mix into each well of assay plate. • 3. Add 5 μL of diluted compound into a well of the assay plate. • 4. Add 5 μL of 50% DMSO for negative control into last column of assay plate. • 5. Mix with multi-channel pipettor or orbital shaker. • 6. Pre-incubate for 10 minutes at 37° C. • 7. Add 10 μL of 500 nM HGFR to each well of assay plate; the final HGFR concentration is 50 nM in a total final volume of 100 μL. • 8. Measure activity for 10 minutes at λ=340 nm and 37° C.
Ki data were obtained using the HGFR Continuous-Coupled Spectrophotometric Assay, and IC50 data were obtained using the Cellular HGFR Autophosphorylation Assay, both of which are described above.

HGFR (c-Met), sequence (P08581 974-1390): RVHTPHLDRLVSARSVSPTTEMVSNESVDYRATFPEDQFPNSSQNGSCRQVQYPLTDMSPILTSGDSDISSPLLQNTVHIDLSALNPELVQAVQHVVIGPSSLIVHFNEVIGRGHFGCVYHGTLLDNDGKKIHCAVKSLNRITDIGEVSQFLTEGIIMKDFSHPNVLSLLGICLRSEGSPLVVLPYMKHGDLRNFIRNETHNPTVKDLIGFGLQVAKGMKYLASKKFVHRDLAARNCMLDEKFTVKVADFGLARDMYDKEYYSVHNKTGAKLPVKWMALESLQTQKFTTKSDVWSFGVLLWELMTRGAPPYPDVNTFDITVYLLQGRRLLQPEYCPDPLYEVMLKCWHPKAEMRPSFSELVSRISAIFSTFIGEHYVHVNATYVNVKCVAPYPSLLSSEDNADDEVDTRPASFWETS

SMILES	Ki
COc1cc(-c2cnc(N)c(OC(C)c3c(Cl)ccc(F)c3Cl)c2)ccc1C(=O)N1C[C@@H](C)N[C@@H](C)C1 (stereo partly drawn) [Example 23, 3-[1-(2,6-dichloro-3-fluorophenyl)ethoxy]-5-(4-{[(3R,5S)-3,5-dimethylpiperazin-1-yl]carbonyl}-3-methoxyphenyl)pyridin-2-amine]	27.2 nM
COC(=O)c1n[nH]c2cc(-c3cnc(N)c(OC(C)c4c(Cl)ccc(F)c4Cl)c3)ccc12 (centres unmarked) [Example 106, methyl 6-{6-amino-5-[1-(2,6-dichloro-3-fluorophenyl)ethoxy]pyridin-3-yl}-1H-indazole-3-carboxylate]	44 nM
CC(Oc1cc(-c2ccc(N3CCN(CCN(C)C)CC3)nc2)cnc1N)c1c(Cl)ccc(F)c1Cl (centres unmarked) [Example 69, 5-[1-(2,6-Dichloro-3-fluoro-phenyl)-ethoxy]-6′-[4-(2-dimethylamino-ethyl)-piperazin-1-yl]-[3,3′]bipyridinyl-6-ylamine]	39 nM
COC(=O)c1cn(-c2cnc(N)c(OC(C)c3c(Cl)ccc(F)c3Cl)c2)cn1 (centres unmarked) [Example 86, 1-{6-Amino-5-[1-(2,6-dichloro-3-fluoro-phenyl)-ethoxy]-pyridin-3-yl}-imidazole-4-carboxylic acid methyl ester]	1810 nM
CC(Oc1cc(-c2ccc(C(=O)N3CCNCC3)cc2)cnc1N)c1c(Cl)ccc(O)c1Cl (centres unmarked) [Example 79, (4-{6-Amino-5-[1-(2,6-dichloro-3-hydroxy-phenyl)-ethoxy]-pyridin-3-yl}-phenyl)-piperazin-1-yl-methanone]	71 nM
CC(Oc1cc(-c2ccc(C3(O)CCNCC3)nc2)cnc1N)c1c(Cl)ccc(F)c1Cl (centres unmarked) [Example 30]	21.9 nM
CC(Oc1cc(-c2ccc(NC(=O)N3CCNCC3)cc2)cnc1N)c1c(Cl)ccc(F)c1Cl (centres unmarked) [Example 40, Piperazine-1-carboxylic acid (4-{6-amino-5-[1-(2,6-dichloro-3-fluoro-phenyl)-ethoxy]-pyridin-3-yl}-phenyl)-amide]	88 nM
CC(Oc1cc(-c2ccc(NCCN3CCCC3)nc2)cnc1N)c1c(Cl)ccc(F)c1Cl (centres unmarked) [Example 75, 5-[1-(2,6-Dichloro-3-fluoro-phenyl)-ethoxy]-N6′-(2-pyrrolidin-1-yl-ethyl)-[3,3′]bipyridinyl-6,6′-diamine]	28 nM
CC(Oc1cc(-c2ccc(NS(C)(=O)=O)cc2)cnc1N)c1c(Cl)ccc(F)c1Cl (centres unmarked) [Example 138, N-(4-{6-amino-5-[1-(2,6-dichloro-3-fluorophenyl)ethoxy]pyridin-3-yl}phenyl) methanesulfonamide]	32 nM
COc1cc(-c2cnc(N)c(OC(C)c3c(Cl)ccc(F)c3Cl)c2)ccc1O (centres unmarked) [Example 140, 4-{6-amino-5-[1-(2,6-dichloro-3-fluorophenyl)ethoxy]pyridin-3-yl}-2-methoxyphenol]	39 nM
COc1ccc(C(=O)Nc2cnc(N)c(OC(C)c3c(Cl)ccc(F)c3Cl)c2)cc1 (centres unmarked) [Example 91, N-{6-Amino-5-[1-(2,6-dichloro-3-fluoro-phenyl)-ethoxy]-pyridin-3-yl}4-methoxy-benzamide]	1320 nM
CCS(=O)(=O)c1ccc(-c2cnc(N)c(OC(C)c3c(Cl)ccc(F)c3Cl)c2)cc1 (centres unmarked) [Example 139, 3-[1-(2,6-dichloro-3-fluorophenyl)ethoxy]-5-(4-(ethylsulfonyl)phenyl]pyridin-2-amine]	53 nM
C[C@@H](Oc1cc(-c2ccc(C(=O)N(C)CCN(C)C)cc2)cnc1N)c1c(Cl)ccc(F)c1Cl [Example 126, 4-{6-amino-5-[(1 R)-1-(2,6-dichloro-3-fluorophenyl)ethoxy]pyridin-3-yl}-N-[2-(dimethylamino)ethyl]-N-methylbenzamide]	10 nM
CC(Oc1cc(-c2ccc(C(=O)N(C)CCC#N)cc2)cnc1N)c1c(Cl)ccc(F)c1Cl (centres unmarked) [Example 2, 4-{6-Amino-5-[1-(2,6-dichloro-3-fluorophenyl)ethoxy]pyridin-3-yl}-N-(2-cyanoethyl)-N-methylbenzamide]	33 nM
CC(Oc1cc(C2=CCCC2)cnc1N)c1c(Cl)ccc(F)c1Cl (centres unmarked) [Example 110, 5-cyclopent-1-en-1-yl-3-[1-(2,6-dichloro-3-fluorophenyl)ethoxy]pyridin-2-amine]	250 nM
CC(Oc1cc(-c2cn(CCN3CCOCC3)cn2)cnc1N)c1c(Cl)ccc(F)c1Cl (centres unmarked) [Example 59, 3-[1-(2,6-Dichloro-3-fluoro-phenyl)-ethoxy]-5-[1-(2-morpholin-4-yl-ethyl)-1H-imidazol-4-yl]-pyridin-2-ylamine]	155 nM
CC(Oc1cc(-c2ccc(CC(=O)N3CCC(N)C3)cc2)cnc1N)c1c(Cl)ccc(F)c1Cl (centres unmarked) [Example 99, 2-(4-{6-Amino-5-[1-(2,6-dichloro-3-fluoro-phenyl)-ethoxy]-pyridin-3-yl}-phenyl)-1-(3-amino-pyrrolidin-1-yl)-ethanone]	40 nM
CC(Oc1cc(-c2ccc(C(=O)N3CCC(N4CCCC4)CC3)cc2)cnc1N)c1ccc(Cl)cc1Cl (centres unmarked) [Example 52, (4-{6-Amino-5-[1-(2,4-dichloro-phenyl)-ethoxy]-pyridin-3-yl}-phenyl)-(4-pyrrolidin-1-yl-piperidin-1-yl)-methanone]	2140 nM
Cc1ccc(Cl)c(C(C)Oc2cc(-c3ccc(C(=O)N4CCC(N5CCCC5)CC4)cc3)cnc2N)c1F (centres unmarked) [Example 82, (4-{6-Amino-5-[1-(6-chloro-2-fluoro-3-methyl-phenyl)-ethoxy]-pyridin-3-yl}-phenyl)-(4-pyrrolidin-1-yl-piperidin-1-yl)-methanone]	410 nM
CC(Oc1cc(-c2ccc(C(=O)N3CC4CNCC4C3)cc2)cnc1N)c1c(Cl)ccc(F)c1Cl (centres unmarked) [Example 20, 3-[1-(2,6-Dichloro-3-fluorophenyl)ethoxy]-5-[4-(hexahydropyrrolo[3,4-c]pyrrrol-2 (1H)-ylcarbonyl)phenyl]pyridin-2-amine]	26 nM
Cc1[nH]c(C(=O)NCCN(C)C)c(C)c1-c1cnc(N)c(OC(C)c2c(Cl)ccc(F)c2Cl)c1 (centres unmarked) [Example 44, 4-{6-Amino-5-[1-(2,6-dichloro-3-fluoro-phenyl)-ethoxy]-pyridin-3-yl}-3,5-dimethyl-1H-pyrrole-2-carboxylic acid (2-dimethylamino-ethyl)-amide]	262 nM
CC(Oc1cc(-c2ccc(N3CCC(N4CCCC4)CC3)nc2)cnc1N)c1c(Cl)ccc(F)c1Cl (centres unmarked) [Example 67, 5″-[1-(2,6-Dichloro-3-fluoro-phenyl)-ethoxy]-4-pyrrolidin-1-yl-3,4,5,6-tetrahydro-2H-[1,2′;5′,3″]terpyridin-6″-ylamine]	23.1 nM
CC(Oc1cc(-c2ccc(F)c(C#N)c2)cnc1N)c1c(Cl)ccc(F)c1Cl (centres unmarked) [Example 103, 5-{6-amino-5-[1-(2,6-dichloro-3-fluorophenyl)ethoxy]pyridin-3-yl}-2-fluorobenzonitrile]	340 nM
Cc1[nH]c(C(=O)NCCCN(C)C)c(C)c1-c1cnc(N)c(OC(C)c2c(Cl)ccc(F)c2Cl)c1 (centres unmarked) [Example 43, 4-{6-Amino-5-[1-(2,6-dichloro-3-fluoro-phenyl)-ethoxy]-pyridin-3-yl}-3,5-dimethyl-1H-pyrrole-2-carboxylic acid (3-dimethylamino-propyl)-amide]	451 nM

Same assay, conditions: compound at 1 μM

SMILES	inhibition at 1 µM
CC(Oc1cc(-c2ccc(C(=O)N(C)CCC#N)cc2)cnc1N)c1c(Cl)ccc(F)c1Cl (centres unmarked) [Example 2, 4-{6-Amino-5-[1-(2,6-dichloro-3-fluorophenyl)ethoxy]pyridin-3-yl}-N-(2-cyanoethyl)-N-methylbenzamide]	95%
CC(Oc1cc(-c2ccc(C(=O)N3CC4CNCC4C3)cc2)cnc1N)c1c(Cl)ccc(F)c1Cl (centres unmarked) [Example 20, 3-[1-(2,6-Dichloro-3-fluorophenyl)ethoxy]-5-[4-(hexahydropyrrolo[3,4-c]pyrrrol-2 (1H)-ylcarbonyl)phenyl]pyridin-2-amine]	93%
